SMILES strings stand for the structures. Read-outs that look alike come from different tables or passages of the source.

The values below come from US20250134892A1, “COMBINATION OF COMPOUNDS FOR TREATING VASCULAR DISEASES COMPRISING PDE5 INHIBITOR, ARGININE AND N-ACETYLCYSTEINE” (Future Pharmtech Inc., priority 2022, published 2025).

The subject of data set [1] is Endothelial nitric oxide synthase (eNOS). In words: Expression amount of endothelial nitric oxide synthase (eNOS assay kit). Format: cell-based, Human. The note with it: vascular endothelial cells, treatment 10 min (FIG. 3). How it is done:
Sildenafil, arginine, N-acetylcysteine, and S-nitroso-N-acetylpenicillamine (SNAP) are dissolved and diluted in phosphate buffered saline (PBS). […] The solutions are stored at a temperature of 4° C. […] Human umbilical vein endothelial cells (HUVEC) obtained from Bioresource Collection and Research Center (Hsinchu, Taiwan) were cultured in Ham's F-12K (Sigma-Aldrich) with endothelial cell growth supplement (Millipore), heparin (Sigma-Aldrich), 2.2 mg/mL sodium bicarbonate, and 10% FBS (Gibco). HUVEC at passage 5 to 15 were used in all applications. Human pulmonary artery vascular smooth muscle (PAVSM) cells and growth media were obtained from Lonza Inc. (Walkersville, MD., USA). Cells were grown in a 5% CO2 atmosphere at 37° C. For cell treatments, HUVEC and PAVSM cells were grown in confluence respectively on the upper and lower wells of Transwell® units. Culture medium volume in each upper chamber was 1.5 mL, and in each lower chamber was 2.5 mL. […] All supernatants of HUVEC and PAVSM were collected right after the treatments for the NO amount analysis. […] Analysis of Expression Amount of Endothelial Nitric Oxide Synthase Endothelial nitric oxide synthase (eNOS) activity was assessed using the eNOS assay kit (Promega). […] Relative Luminance Unit (RLU) emitted by the product was measured using a microreader.

The conditions of data set [2]: sildenafil alone, healthy elderly subjects (65 years or older); cited from earlier work.
The subject of data set [3] is HUVEC. In words: Vascular permeability analysis: VEGF-A release content. The note with it: vascular endothelial cells, treatment 10 min (FIG. 8). Format: cell-based, Human. How it is done: (§1) Sildenafil, arginine, N-acetylcysteine, and S-nitroso-N-acetylpenicillamine (SNAP) are dissolved and diluted in phosphate buffered saline (PBS). […] The solutions are stored at a temperature of 4° C.
(§2) Human umbilical vein endothelial cells (HUVEC) obtained from Bioresource Collection and Research Center (Hsinchu, Taiwan) were cultured in Ham's F-12K (Sigma-Aldrich) with endothelial cell growth supplement (Millipore), heparin (Sigma-Aldrich), 2.2 mg/mL sodium bicarbonate, and 10% FBS (Gibco). HUVEC at passage 5 to 15 were used in all applications. Human pulmonary artery vascular smooth muscle (PAVSM) cells and growth media were obtained from Lonza Inc. (Walkersville, MD., USA). Cells were grown in a 5% CO2 atmosphere at 37° C.
For cell treatments, HUVEC and PAVSM cells were grown in confluence respectively on the upper and lower wells of Transwell® units. Culture medium volume in each upper chamber was 1.5 mL, and in each lower chamber was 2.5 mL. Confluent HUVEC cells were treated with regular medium in the presence or absence of S, SS, SN, SSN and SAN for 0, 10, 20, 30 and 60 min. All supernatants of HUVEC and PAVSM were collected right after the treatments for the NO amount analysis. […]
VEGFA amount was assessed using the VEGFA assay kit (Promega). […] Relative Absorbance Unit at 540 nm emitted by the product was measured using a microreader.

Data set [4] concerns Human pulmonary artery vascular smooth muscle (PAVSM) cells. Kind of data set: cGMP in smooth muscle cells (cGMP immunoassay). Type of data set: cell-based. The note with it: for amount of cGMP compared with control group (drug treatment for 0 min): 100 nM sildenafil. How it is done: Sildenafil, arginine, N-acetylcysteine, and S-nitroso-N-acetylpenicillamine (SNAP) are dissolved and diluted in phosphate buffered saline (PBS). […] The solutions are stored at a temperature of 4° C. […] Human umbilical vein endothelial cells (HUVEC) obtained from Bioresource Collection and Research Center (Hsinchu, Taiwan) were cultured in Ham's F-12K (Sigma-Aldrich) with endothelial cell growth supplement (Millipore), heparin (Sigma-Aldrich), 2.2 mg/mL sodium bicarbonate, and 10% FBS (Gibco). HUVEC at passage 5 to 15 were used in all applications. Human pulmonary artery vascular smooth muscle (PAVSM) cells and growth media were obtained from Lonza Inc. (Walkersville, MD., USA). Cells were grown in a 5% CO2 atmosphere at 37° C. For cell treatments, HUVEC and PAVSM cells were grown in confluence respectively on the upper and lower wells of Transwell® units. Culture medium volume in each upper chamber was 1.5 mL, and in each lower chamber was 2.5 mL. […] All supernatants of HUVEC and PAVSM were collected right after the treatments for the NO amount analysis. HUVEC cells and PAVSM cells were rinsed in ice-cold phosphate buffered saline and then solubilized in ice-cold 6% trichloroacetic acid for the protein extraction. Samples were stored at −80° until the assays. Analysis of cGMP in Smooth Muscle Cells […] Nitric Oxide-Cyclic GMP Signaling Pathway as an Illustrative Example and Derivation of the General Case; PLOS COMPUTATIONAL BIOLOGY, DOI:10.1371/journal.pcbi.1004822 Mar. 17, 2016). cGMP formation was measured by immunoassay according to the cGMP Assay (Cayman Chemical Co., Ann Arbor, MI).

The subject of data set [5] is HUVEC. Kind of data set: Vascular fibrosis index: lipid peroxidation (malondialdehyde, MDA). The note with it: vascular endothelial cells, treatment 10 min (FIG. 7). Format: cell-based, Human. On the procedure: as §1, §2
For cell treatments, HUVEC and PAVSM cells were grown in confluence respectively on the upper and lower wells of Transwell® units. Culture medium volume in each upper chamber was 1.5 mL, and in each lower chamber was 2.5 mL. […]
Lipid peroxidation in HUVEC protein extracts was quantified measuring the concentration of MDA by a spectrofluorometric assay using an “MDA assay kit” as described by Richard et al., 1992 (Richard et al. 1992). Quantification was achieved by parallel measurements of a standard curve of known MDA concentrations, and results were expressed as level change of the control.

Data set [6] concerns HUVEC. Kind of data set: Quantitative free radical ROS content (Cm-H2DCFDA). The note with it: vascular endothelial cells, treatment 10 min (FIG. 6). Type of data set: cell-based, Human. On the procedure: as §1, §2
For cell treatments, HUVEC and PAVSM cells were grown in confluence respectively on the upper and lower wells of Transwell® units. […]
Detection Mode of Quantitative Free Radical ROS Content
ROS detection studies were performed using a Cm-H2DCFDA ROS detection kit (Invitrogen, Grand Island, NY, USA). […] ROS generation was measured every 10 min up to 2 h with a micro-reader at 490 nm excitation, 530 nm emission. […] Samples were then measured immediately using a Promega microreader. ROS levels generated by 2.5×10^4 viable treated cells were expressed as the percentage of ROS produced by an equal number of viable negative control cells.

In data set [7] the test system is Human umbilical vein endothelial cells (HUVEC). Kind of data set: Nitric oxide release amount from endothelial cells (NO assay kit). The note with it: vascular endothelial cells; for release amount of nitric oxide compared with control group (drug treatment for 0 min): 100 nM sildenafil. Type of data set: cell-based. How it is done:
Sildenafil, arginine, N-acetylcysteine, and S-nitroso-N-acetylpenicillamine (SNAP) are dissolved and diluted in phosphate buffered saline (PBS). […] The solutions are stored at a temperature of 4° C. […] Human umbilical vein endothelial cells (HUVEC) obtained from Bioresource Collection and Research Center (Hsinchu, Taiwan) were cultured in Ham's F-12K (Sigma-Aldrich) with endothelial cell growth supplement (Millipore), heparin (Sigma-Aldrich), 2.2 mg/mL sodium bicarbonate, and 10% FBS (Gibco). HUVEC at passage 5 to 15 were used in all applications. Human pulmonary artery vascular smooth muscle (PAVSM) cells and growth media were obtained from Lonza Inc. (Walkersville, MD., USA). Cells were grown in a 5% CO2 atmosphere at 37° C. For cell treatments, HUVEC and PAVSM cells were grown in confluence respectively on the upper and lower wells of Transwell® units. Culture medium volume in each upper chamber was 1.5 mL, and in each lower chamber was 2.5 mL. […] All supernatants of HUVEC and PAVSM were collected right after the treatments for the NO amount analysis. HUVEC cells and PAVSM cells were rinsed in ice-cold phosphate buffered saline and then solubilized in ice-cold 6% trichloroacetic acid for the protein extraction. Samples were stored at −80° until the assays. Analysis of Nitric Oxide Release Amount from Endothelial Cells The nitric oxide amount was assessed using the NO assay kit (Promega). After treatment, the supernatants of HUVEC were collected for the NO assay reagent kit, and 200 μL per well was applied according to the manufacturer's instructions. Relative Luminance Unit (RLU) emitted by the product was measured using a microreader.

The test system of a further data set is erectile dysfunction. The note with it: sildenafil alone, placebo 25%, cited from earlier work.

Take `CCCc1nn(C)c2c(=O)[nH]c(-c3cc(S(=O)(=O)N4CCN(C)CC4)ccc3OCC)nc12` [SILD, sildenafil]: in data set [1], the “expression amount of nitric oxide synthase compared with control group (with no drug)” value was “about 2 folds”. The “clearance rate in elderly subjects” value in data set [2] is reported as “decreased”. Moreover, in the data set with HUVEC [3], the “amount of VEGFA compared with control group (with no drug treatment)” value is “about 3.9 folds”. Besides, the “amount of cGMP compared with control group (drug treatment for 0 min)” value is reported as “about 2.6 folds” in data set [4] (treatment 10 min (FIG. 4)), around 3 folds in data set [4] (treatment 20 min (FIG. 4)), around 4.7 folds in data set [4] (treatment 30 min (FIG. 4)) and around 5.5 folds in data set [4] (treatment 60 min (FIG. 4)). For the same molecule, the “amount of cGMP compared with control group (with no drug)” value in data set [4] (10-min treatment (FIG. 5)) is on record as “about 2.6 folds”. Further, the “amount of MDA compared with control group (with no drug treatment)” value in the data set with HUVEC [5] was “about 2.8 folds”. The “amount of ROS compared with control group (with no drug treatment)” value in the data set with HUVEC [6] is “about 2.8 folds”. Also, the “release amount of nitric oxide compared with control group (drug treatment for 0 min)” value was “about 1.6 folds” in data set [7] (treatment 10 min (FIG. 1)), “about 2.6 folds” in data set [7] (treatment 20 min (FIG. 1)), “about 3.1 folds” in data set [7] (treatment 30 min (FIG. 1)) and “about 3.5 folds” in data set [7] (treatment 60 min (FIG. 1)). Moreover, the “release amount of nitric oxide compared with control group (with no drug)” value in data set [7] (10-min drug treatment (FIG. 2)) is given as “about 1.6 folds”. In addition, the results for the “proportion of disease improvement” value in the data set with erectile dysfunction (25 mg), with erectile dysfunction (50 mg) and in the data set on erectile dysfunction (100 mg) were 62%, 74% and 82%, respectively.
